Measured values as given in patent US5270047A, “Local delivery of dipyridamole for the treatment of proliferative diseases” (priority 1991, dated 1993).

System: balloon-injured left common carotid arteries
Test: Effect of local adventitial dipyridamole upon intimal thickening after balloon injury of the left common carotid artery
Type: in vivo, male Sprague-Dawley rats
Conditions: 600 μg/day, fourteen days
Description: Balloon injury to the left common carotid arteries of male Sprague-Dawley rats (350-400 g) was accomplished by three passes of an inflated 2F Fogarty balloon catheter as described by Clowes et al., Lab Invest. 49:208-215 (1983). Animals were anesthetized with Ketamine (80 mg/kg, intramuscular) and Rompun (16 mg/kg, intramuscular). Entry of the balloon catheter to the left common carotid artery was made via a nick in the external carotid artery, which was tied off at the end of the surgical procedure. Continuous local delivery of dipyridamole was accomplished by means of a minosmotic pump implanted subcutaneously in the back of the rat. […]
Fourteen days post surgery, animals were anesthetized (vide supra) and perfused through the abdominal aorta in a retrograde manner at physiological pressure with a zinc formalin fixative (Anatech LTD., Battle Creek, Mich.). […] Three adjacent cross sections (5 μm thick) of each vessel were cut, stained with hematoxylin and eosin, and cross-sectional intimal areas quantitated with an image analyzer (Quantimet 970, Cambridge Inst., Cambridge, UK).
The difference between intimal areas of drug-treated vs. control groups were analyzed for statistical significance using Student's t-test as described in Tallarida et al., Manual of Pharmacologic Calculations with Computer Programs, Springer-Verlag, New York, 1981, p. […]

With OCCN(CCO)c1nc(N2CCCCC2)c2nc(N(CCO)CCO)nc(N3CCCCC3)c2n1 [Dipyridamole, 2,6-bis(diethanolamino)-4,8-dipiperidinopyrimido[5,4-d]pyrimidine] the “Area of Intimal Thickening (% of control)” value (P < 0.05 vs. control) was 67.4 % of control and the “Area of Intimal Thickening” value (vehicle 0.129 ± 0.013, P < 0.05 vs. control) was 0.087 ± 0.011 mm^2.
